From patent publication US9744148B2, “Kallikrein 7 inhibitors” (SIXERA PHARMA AB, priority 2014, dated 2017)
pIC50: −log10 of the molar value.

target: Active human KLK7 (SCCE) (Homo sapiens (Human), UniProt P49862); assay: KLK7 Inhibitor Test; assay type: biochemical; conditions: substrate MeO-Suc-Arg-Pro-Tyr-pNA, pH 7.2, 37° C., absorbance at 405 nm
Method: KLK7 Inhibitor Test Substrate:(MeO-Suc-[…]), acetate salt, Peptide international, lot #906841, previously named S-2586 Enzyme: […] Buffer: 10 mM NaPhospate, 0.5 M NaCl, pH 7.2 […] 10 μl of substance in DMSO was added to wells giving final concentrations of 20 μ[…], and 0.15625 μM. 40 μl of active KLK7 (SCCE) (diluted to 12.5 μg/ml in activity buffer) was added all wells except blank to which activity buffer was added. […] The mean value V of each sample was calculated (n=2 for the substances and n=4 for the control). From the values of V the % of total activity was calculated as (Vinhibitor/Vcontrol (no inhibitor))×100. Plotting and calculation was then done in originPro. % of total activity (y) was plotted vs. log [inhibitor] (log x) and a function of dose response y=A1+(A2-A1)/(1+10^((LOG(x0)-x)*p)) where A1=Bottom platue, A2=Top platue, x0=EC50 and p=Hill slope was fitted to the curve. […] The IC50 values were used to identify KLK7 inhibitors according to the invention.

Sequence of Active human KLK7 (SCCE) (P49862 30-253): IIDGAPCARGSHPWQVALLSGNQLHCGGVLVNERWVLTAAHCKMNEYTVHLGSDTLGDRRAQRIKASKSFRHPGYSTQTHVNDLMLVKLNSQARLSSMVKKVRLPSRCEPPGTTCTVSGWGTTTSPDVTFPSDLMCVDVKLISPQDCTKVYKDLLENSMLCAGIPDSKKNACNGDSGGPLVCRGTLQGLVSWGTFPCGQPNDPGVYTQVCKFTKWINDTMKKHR

pIC50 | SMILES
7.41 | Cc1cc(NC(=O)C(C)OC(=O)Cc2ccc(Cl)cc2)no1 (stereo not shown) [Compound 1, [1-methyl-2-[(5-methylisoxazol-3-yl)amino]-2-oxo-ethyl] 2-(4-chlorophenyl)acetate]
7.15 | CC(OC(=O)Cc1ccc(Cl)cc1)C(=O)Nc1ccc(F)cc1 (stereo not shown) [Compound 2]
7.10 | CCC(OC(=O)Cc1ccc(Cl)cc1)C(=O)Nc1cc(C)on1 (stereo not shown) [Compound 3, 1-[(5-methylisoxazol-3-yl)carbamoyl]propyl 2-(4-chlorophenyl)acetate]
7.10 | COc1ccc(NC(=O)C(C)OC(=O)Cc2ccc(Cl)cc2)cc1 (stereo not shown) [Compound 4, [2-(4-methoxyanilino)-1-methyl-2-oxo-ethyl] 2-(4-chlorophenyl)acetate]
7.05 | CC(OC(=O)Cc1ccc(Cl)cc1)C(=O)Nc1ccccc1 (stereo not shown) [Compound 5]
6.92 | CCC(OC(=O)Cc1ccc(Cl)cc1)C(=O)Nc1ccc(OC)cc1 (stereo not shown) [Compound 6, 1-[(4-methoxyphenyl)carbamoyl]propyl 2-(4-chlorophenyl)acetate]
6.89 | COc1ccc(CC(=O)OC(C)C(=O)Nc2cc(C)on2)cc1 (stereo not shown) [Compound 7, [1-methyl-2-[(5-methylisoxazol-3-yl)amino]-2-oxo-ethyl] 2-(4-methoxyphenyl) acetate]
6.85 | CCC(OC(=O)Cc1ccc(Cl)cc1)C(=O)Nc1ccc(F)cc1 (stereo not shown) [Compound 8, 1-[(4-fluorophenyl)carbamoyl]propyl 2-(4-chlorophenyl)acetate]
6.82 | CCC(OC(=O)Cc1ccc(Cl)cc1)C(=O)Nc1ccccc1 (stereo not shown) [Compound 9, 1-(phenylcarbamoyl)propyl 2-(4-chlorophenyl)acetate]
6.82 | CCC(OC(=O)CCC1CCCC1)C(=O)Nc1ccc(OC)cc1 (stereo not shown) [Compound 11, 1-[(4-methoxyphenyl)carbamoyl]propyl 3-cyclopentylpropanoate]
6.82 | CCC(OC(=O)Cc1ccc(OC)cc1)C(=O)Nc1cc(C)on1 (stereo not shown) [Compound 12, 1-[(5-methylisoxazol-3-yl)carbamoyl]propyl 2-(4-methoxyphenyl) acetate]
6.77 | COc1ccc(NC(=O)C(OC(=O)Cc2ccc(Cl)cc2)c2ccccc2)cc1 (stereo not shown) [Compound 13, [2-(4-methoxyanilino)-2-oxo-1-phenyl-ethyl] 2-(4-chlorophenyl)acetate]
6.74 | Cc1cc(NC(=O)C(C)OC(=O)CCC2CCCC2)no1 (stereo not shown) [Compound 14, [1-methyl-2-[(5-methylisoxazol-3-yl)amino]-2-oxo-ethyl] 3-cyclopentylpropanoate]
6.74 | COc1ccc(CC(=O)OC(C)C(=O)Nc2ccc(OC)cc2)cc1 (stereo not shown) [Compound 15, [2-(4-methoxyanilino)-1-methyl-2-oxo-ethyl] 2-(4-methoxyphenyl)acetate]
6.72 | CCC(OC(=O)CCC1CCCC1)C(=O)Nc1cc(C)on1 (stereo not shown) [Compound 16, 1-[(5-methylisoxazol-3-yl)carbamoyl]propyl 3-cyclopentylpropanoate]
6.72 | Cc1cc(NC(=O)C(OC(=O)Cc2ccc(Cl)cc2)c2ccccc2)no1 (stereo not shown) [Compound 17, [2-[(5-methylisoxazol-3-yl)amino]-2-oxo-1-phenyl-ethyl] 2-(4-chlorophenyl)acetate]
6.66 | CCCC(OC(=O)C(c1ccccc1)c1ccccc1)C(=O)Nc1cc(C)on1 (stereo not shown) [Compound 18]
6.64 | COc1ccc(NC(=O)C(OC(=O)CCC2CCCC2)c2ccccc2)cc1 (stereo not shown) [Compound 19, [2-(4-methoxyanilino)-2-oxo-1-phenyl-ethyl] 3-cyclopentylpropanoate]
6.64 | Cc1cc(NC(=O)C(OC(=O)CCC2CCCC2)c2ccccc2)no1 (stereo not shown) [Compound 20, [2-[(5-methylisoxazol-3-yl)amino]-2-oxo-1-phenyl-ethyl] 3-cyclopentylpropanoate]
6.59 | COc1ccc(CC(=O)OC(C)C(=O)Nc2ccccc2)cc1 (stereo not shown) [Compound 21]
6.59 | CC(OC(=O)CCC1CCCC1)C(=O)Nc1ccc(F)cc1 (stereo not shown) [Compound 22]
6.57 | CCC(OC(=O)Cc1ccc(OC)cc1)C(=O)Nc1cc(C)on1 (stereo not shown) [Compound 23, 1-[(5-methylisoxazol-3-yl)carbamoyl]propyl 2-(4-methoxyphenyl)acetate]
6.55 | CCC(OC(=O)Cc1ccc(OC)cc1)C(=O)Nc1ccc(OC)cc1 (stereo not shown) [Compound 24, 1-[(4-methoxyphenyl)carbamoyl]propyl 2-(4-methoxyphenyl)acetate]
6.51 | CCC(OC(=O)CCC1CCCC1)C(=O)Nc1ccc(F)cc1 (stereo not shown) [Compound 25, 1-[(4-fluorophenyl)carbamoyl]propyl 3-cyclopentylpropanoate]
6.49 | CCC(OC(=O)Cc1ccc2c(c1)OCO2)C(=O)Nc1cc(C)on1 (stereo not shown) [Compound 26, 1-[(5-methylisoxazol-3-yl)carbamoyl]propyl 2-(1,3-benzodioxol-5-yl)acetate]
6.48 | CCCCC(OC(=O)C(c1ccccc1)c1ccccc1)C(=O)Nc1cc(C)on1 (stereo not shown) [Compound 27]

pIC50 | SMILES
6.47 | CC[C@H](OC(=O)C(c1ccccc1)c1ccccc1)C(=O)Nc1cc(C)on1 [Compound 28]
6.46 | O=C(Cc1ccc(Cl)cc1)OC(C(=O)Nc1ccc(F)cc1)c1ccccc1 (stereo not shown) [Compound 29]
6.44 | CCC(OC(=O)Cc1ccc(OC)cc1)C(=O)Nc1ccc(F)cc1 (stereo not shown) [Compound 30, 1-[(4-fluorophenyl)carbamoyl]propyl 2-(4-methoxyphenyl)acetate]
6.43 | CC(OC(=O)CCC1CCCC1)C(=O)Nc1ccccc1 (stereo not shown) [Compound 31, (2-anilino-1-methyl-2-oxo-ethyl) 3-cyclopentylpropanoate]
6.42 | O=C(Cc1ccc(Cl)cc1)OC(C(=O)Nc1ccccc1)c1ccccc1 (stereo not shown) [Compound 32, (2-anilino-2-oxo-1-phenyl-ethyl) 2-(4-chlorophenyl)acetate]
6.41 | CCC(OC(=O)C(c1ccccc1)c1ccccc1)C(=O)Nc1cc(C)on1 (stereo not shown) [Compound 33]
6.41 | CCC(OC(=O)Cc1ccc(OC)cc1)C(=O)Nc1ccccc1 (stereo not shown) [Compound 34, 1-(phenylcarbamoyl)propyl 2-(4-methoxyphenyl)acetate]
6.39 | COc1ccc(CC(=O)OC(C(=O)Nc2ccc(OC)cc2)c2ccccc2)cc1 (stereo not shown) [Compound 35, [2-(4-methoxyanilino)-2-oxo-1-phenyl-ethyl] 2-(4-methoxyphenyl)acetate]
6.37 | COc1ccc(CC(=O)OC(C(=O)Nc2cc(C)on2)c2ccccc2)cc1 (stereo not shown) [Compound 36, [2-[(5-methylisoxazol-3-yl)amino]-2-oxo-1-phenyl-ethyl] 2-(4-methoxyphenyl)acetate]
6.34 | O=C(CCC1CCCC1)OC(C(=O)NCc1ccccc1)c1ccccc1 (stereo not shown) [Compound 37, [2-(benzylamino)-2-oxo-1-phenyl-ethyl] 3-cyclopentylpropanoate]
6.33 | COCCC(OC(=O)C(c1ccccc1)c1ccccc1)C(=O)Nc1cc(C)on1 (stereo not shown) [Compound 38]
6.32 | CCC(OC(=O)Cc1ccc(Cl)c(Cl)c1)C(=O)Nc1cc(C)on1 (stereo not shown) [Compound 39, 1-[(5-methylisoxazol-3-yl)carbamoyl]propyl 2-(3,4-dichlorophenyl)acetate]
6.26 | COc1ccc(NC(=O)COC(=O)Cc2ccc(Cl)cc2)cc1 [Compound 40]
6.24 | CCC(OC(=O)Cc1ccc(OC)c(OC)c1)C(=O)Nc1cc(C)on1 (stereo not shown) [Compound 41, 1-[(5-methylisoxazol-3-yl)carbamoyl]propyl 2-(3,4-dimethoxyphenyl)acetate]
6.23 | COc1ccc(CC(=O)OC(C)C(=O)Nc2ccc(F)cc2)cc1 (stereo not shown) [Compound 42]
6.20 | CCC(OC(=O)C(c1ccccc1)c1ccccc1)C(=O)Nc1ccc(OC)cc1 (stereo not shown) [Compound 43, 1-[(4-methoxyphenyl)carbamoyl]propyl 2,2-diphenylacetate]
6.19 | CCC(OC(=O)C(c1ccccc1)c1ccccc1)C(=O)Nc1ccc(F)cc1 (stereo not shown) [Compound 44, 1-[(4-fluorophenyl)carbamoyl]propyl 2,2-diphenylacetate]
6.18 | CCC(OC(=O)C(NC(=O)c1ccccc1)c1ccccc1)C(=O)Nc1cc(C)on1 (stereo not shown) [Compound 45]
6.16 | COc1ccc(NC(=O)COC(=O)CCC2CCCC2)cc1 [Compound 46]
6.13 | Cc1cc(NC(=O)C(C)OC(=O)C(c2ccccc2)c2ccccc2)no1 (stereo not shown) [Compound 47, [1-methyl-2-[(5-methylisoxazol-3-yl)amino]-2-oxo-ethyl] 2,2-diphenylacetate]
6.12 | CCC(OC(=O)C(c1ccccc1)c1ccccc1)C(=O)Nc1ccccc1 (stereo not shown) [Compound 48, 1-(phenylcarbamoyl)propyl 2,2-diphenylacetate]
6.11 | Cc1cc(NC(=O)C(OC(=O)C(NC(=O)c2ccccc2)c2ccccc2)c2ccccc2)no1 (stereo not shown) [Compound 49, [2-[(5-methylisoxazol-3-yl)amino]-2-oxo-1-phenyl-ethyl] 2-benzamido-2-phenyl-acetate]
6.10 | O=C(COC(=O)Cc1ccc(Cl)cc1)Nc1ccc(F)cc1 [Compound 50]
6.08 | O=C(COC(=O)CCC1CCCC1)Nc1ccc(F)cc1 [Compound 51]
6.02 | Cc1cc(NC(=O)C(C)OC(=O)C(NC(=O)c2ccccc2)c2ccccc2)no1 (stereo not shown) [Compound 52, [1-methyl-2-[(5-methylisoxazol-3-yl)amino]-2-oxo-ethyl] 2-benzamido-2-phenyl-acetate]
5.96 | CC(OC(=O)C(c1ccccc1)c1ccccc1)C(=O)Nc1ccccc1 (stereo not shown) [Compound 53]
